Converted amounts (≈) assume the structure as drawn.
What was measured:
Settings in all cases: Homo sapiens
HeLa [1] = assay: Cytotoxicity against HeLa cells; format: functional
HeLa [2] = assay: Compound was evaluated for its inhibitory effect on the replication of encephalomyocarditis virus (EMCV) in HeLa cells; format: functional, cell-based
MT4 [3] = assay: Cytotoxicity against MT-4 cells; format: functional
MT4 [4] = assay: Compound was evaluated for its inhibitory effect on the replication of HIV-1(IIIB) in MT-4 cells; format: functional, cell-based
HeLa [5] = assay: Compound was evaluated for its inhibitory effect on the replication of Coxsackie virus B3 (Cox. B3) in HeLa cells; format: functional, cell-based
HeLa [6] = assay: Compound was evaluated for its inhibitory effect on the replication of vesicular stomatitis virus (VSV) in HeLa cells; format: functional, cell-based
MT4 [7] = assay: Compound was evaluated for its inhibitory effect on the replication of HIV-2 (ROD) in MT-4 cells; format: functional, cell-based

Cc1cn(C2OC3(CO)COCC3C2O)c(=O)[nH]c1=O (stereo unspecified)
CC50 (HeLa [1]): 100 µg/mL (≈ 352 µM) | EC50 (HeLa [2]): 100 µg/mL (≈ 352 µM) | CC50 (MT4 [3]): 0.54 µg/mL (≈ 1.9 µM) | EC50 (MT4 [4]): 95.8 µg/mL (≈ 337 µM) | EC50 (HeLa [5]): 100 µg/mL (≈ 352 µM) | EC50 (HeLa [6]): 100 µg/mL (≈ 352 µM) | EC50 (MT4 [7]): > 0.54 µg/mL

Cc1cn(C2CC3COCC3(CO)O2)c(=O)[nH]c1=O (stereo unspecified)
CC50 (HeLa [1]): 4.11 µg/mL (≈ 15.3 µM) | EC50 (HeLa [2]): > 4.11 µg/mL | CC50 (MT4 [3]): < 0.8 µg/mL | EC50 (MT4 [4]): > 100 µg/mL | EC50 (HeLa [5]): > 4.11 µg/mL | EC50 (HeLa [6]): 3.45 µg/mL (≈ 12.9 µM) | EC50 (MT4 [7]): > 100 µg/mL

NC(=O)c1ncn([C@@H]2O[C@H](CO)[C@@H](O)[C@H]2O)n1 [RIBAVIRIN]
CC50 (HeLa [1]): 300 µg/mL (≈ 1230 µM) | EC50 (HeLa [2]): 20.9 µg/mL (≈ 85.7 µM) | EC50 (HeLa [5]): 181 µg/mL (≈ 743 µM) | EC50 (HeLa [6]): 14.4 µg/mL (≈ 59 µM)

Cc1cn([C@H]2C[C@H](N=[N+]=[N-])[C@@H](CO)O2)c(=O)[nH]c1=O [ZIDOVUDINE]
CC50 (MT4 [3]): 1.64 µg/mL (≈ 6.14 µM) | EC50 (MT4 [4]): 0.0012 µg/mL (≈ 0.00449 µM) | EC50 (MT4 [7]): 0.01 µg/mL (≈ 0.0374 µM)
